Test results taken from PubChem BioAssay (NCI).
“And” between values parts separate entries of the source, which are not always exact repeats. Equal entries are not always repeated.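 Results reflect a 48-hour exposure of cells in 96-well plates to compound at five concentrations. GI50 = concentration required for 50% inhibition of growth. Definition used: TGI = concentration required for complete inhibition of growth.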

Tested on: NCI/ADR-RES ovarian
Test: NCI-60 cell line screen, 48 h

SMILES | TGI | GI50
CC(=O)O[C@@]12CO[C@@H]1CC(O)[C@@]1(C)C(=O)[C@H](O)C3=C(C)C(O)C[C@@](O)(C(OC(=O)c4ccccc4)C12)C3(C)C (stereo partly drawn) | > 100 µM | 
COc1ccc(CNc2nc(NC3CCCCC3)nc(NC3CCCCC3)n2)cc1 | > 100 µM | 
CN(C)CCCNc1ccc2ncn3c4ccc(O)cc4c(=O)c1c23 | > 100 µM | 
S=C1NCCN1C(=S)Nc1ccccc1 | > 100 µM | 
CCOC(=O)c1ccc(-c2ccc(Cl)cc2)[nH]1 | > 10 µM | 
CC1CC(Nc2ccc(Br)cc2)N(C(=O)c2ccc(Br)cc2)O1 (stereo not drawn) | > 10 µM | 
OC(C/C=N/N=C/CC(O)(C(F)(F)Cl)C(F)(F)Cl)(C(F)(F)Cl)C(F)(F)Cl | > 10 µM | 
O=C1C=C(Nc2ccc(S(=O)(=O)Nc3nccs3)cc2)c2ccccc2C1=O | 95.3 µM | 
O=c1[nH]c2nc3ccccc3c(=O)n2/c1=C/c1cccs1 | > 100 µM | 
Cc1cc(C)nc(NC(P(=O)(O)O)P(=O)(O)O)n1 | > 100 µM | 
O=C1CCSCCC(=O)Nc2ccccc2N1 | > 100 µM | 
COc1ccc(N2C(=O)C(=O)N(c3ccc(N=Nc4ccccc4)cc3)C2=S)cc1 | 35.9 µM | 
Cc1ccc(CSC(N)=Nc2ccccc2)cc1C | 52.8 µM | 
C=C1CCCCCCCCC/C=C/1SCCCSC | > 100 µM | 
COc1cccc(-c2nc(-c3cnccn3)n(C/C=C/c3ccccc3)n2)c1 | > 10 µM | 
Cc1[nH]n(-c2nc(O)c(-c3ccccc3)c(=O)[nH]2)c(=O)c1CCO | > 100 µM | 
C=C1CC[C@H]2C(=O)OC(c3ccoc3)C[C@]2(C)C/C=C\C=C/1C(=O)OC (stereo partly drawn) | > 25 µM | 
CC(NC(=O)Cc1ccccc1)NC(=O)C(C)C(=O)NCc1ccccc1 (stereo not drawn) | > 100 µM | 

SMILES | TGI | GI50
O=C1C(Br)=CC2(C=C1Br)CCNC1=C2C(=O)c2ncccc2C1=O | 6.17 µM | 
COC(=O)[C@@H](NC(=O)N(Cc1ccccc1)C[C@H](CC(C)C)NC(=O)[C@@H](NC(=O)OC(C)(C)C)C(C)C)C(C)C | > 100 µM | 
CCCCC1Cc2cc(O)ccc2-c2nc3cc(O)ccc3n21 (stereo not drawn) (tested in a mixture with another compound) | 49.4 µM | 
CC(=O)c1c(N=[N+]=[N-])c2cccc3c2n(c1=O)CCC3 | 38.2 µM | 
NC1(CCNC(=O)c2ccccc2)CCN(C(=O)c2ccccc2)CC1 | > 100 µM | 
COC(=O)N[C@H](C(=O)NC(OCc1ccccc1)C1COC(C)(C)O1)C(C)O[Si](C)(C)C(C)(C)C (stereo partly drawn) | > 100 µM | 
O=Cc1ccc(-c2ccc(-c3ccc(CO)s3)o2)s1 | 40.4 µM | 
CN1CC=C(c2c(N)nc(N)[nH]c2=O)CC1 | > 100 µM | 
CN1CCc2c(sc3[nH]c(=S)[nH]c(=S)c23)C1 | > 100 µM | 
Cc1n[n+](Cc2ccccc2)c2sc(N)nn12 | > 100 µM | 
CC(=O)Nc1c(C(=N)C#N)ncn1CCO | > 100 µM | 
O=C(NCCN1CCOCC1)c1ccc(I)cc1 | > 100 µM | 
Cc1ccc(S(=O)(=O)C2=C(C(C)C)N=NC2(C)C)cc1 | > 100 µM | 
COc1cc2nc(-c3cccs3)nc(Cl)c2cc1OC | > 100 µM | 
CCC1CC(O)c2c(O)c3c(c(O)c2C1O)C(=O)c1cccc(O)c1C3=O (stereo not drawn) (tested in a mixture with another compound) | 0.295 µM | 0.0101 µM
CCOC(=O)CCC1(CCC(=O)OCC)CCCCCCCCC(CCC(=O)OCC)(CCC(=O)OCC)C(=O)C1=O | > 100 µM | 
COCn1cnc2c(=O)nc(SC)n(-c3ccccc3)c21 | > 100 µM | 

Tested on: OVCAR-3 ovarian
Test: NCI-60 cell line screen, 48 h

SMILES | TGI
COc1ccc(CNc2nc(NC3CCCCC3)nc(NC3CCCCC3)n2)cc1 | > 100 µM
CN(C)CCCNc1ccc2ncn3c4ccc(O)cc4c(=O)c1c23 | 17.6 µM
Cc1ccc(NC(=O)C(=O)C2C(=O)NC(=O)NC2=O)cc1C | > 100 µM
S=C1NCCN1C(=S)Nc1ccccc1 | > 100 µM
C[n+]1c2ccccc2c(NC(CCCN=C(N)N)C(=O)O)c2ccccc21 (stereo not drawn) | > 100 µM
CCOC(=O)c1ccc(-c2ccc(Cl)cc2)[nH]1 | > 10 µM
CC1CC(Nc2ccc(Br)cc2)N(C(=O)c2ccc(Br)cc2)O1 (stereo not drawn) | > 10 µM
OC(C/C=N/N=C/CC(O)(C(F)(F)Cl)C(F)(F)Cl)(C(F)(F)Cl)C(F)(F)Cl | > 10 µM
O=C1C=C(Nc2ccc(S(=O)(=O)Nc3nccs3)cc2)c2ccccc2C1=O | 36 µM
O=c1[nH]c2nc3ccccc3c(=O)n2/c1=C/c1cccs1 | > 100 µM
Cc1cc(C)nc(NC(P(=O)(O)O)P(=O)(O)O)n1 | > 100 µM
COc1ccc(/C=N/N=C(\N)NO)c(OC)c1C | > 100 µM
CCCC(=O)[O-].CCCC(=O)[O-].NCCN.NCCN.[Co+3].[O-][Cl+3]([O-])([O-])[O-] | > 100 µM
O=C1CCSCCC(=O)Nc2ccccc2N1 | > 100 µM
Cc1ccc(CSC(N)=Nc2ccccc2)cc1C | 44 µM
C=C1CCCCCCCCC/C=C/1SCCCSC | > 100 µM
COc1ccc2nc3cc(Cl)ccc3c(Sc3ccc(NC(C)=O)cc3)c2c1 | > 22.8 µM
COc1cccc(-c2nc(-c3cnccn3)n(C/C=C/c3ccccc3)n2)c1 | > 10 µM

SMILES | TGI
Nc1c(S(=O)(=O)c2ccccc2)c2nc3ccccc3nc2n2c1nc1ccccc12 | > 100 µM
C=C1CC[C@H]2C(=O)OC(c3ccoc3)C[C@]2(C)C/C=C\C=C/1C(=O)OC (stereo partly drawn) | > 25 µM
O=C1C(Br)=CC2(C=C1Br)CCNC1=C2C(=O)c2ncccc2C1=O | 4.56 µM
COC(=O)[C@@H](NC(=O)N(Cc1ccccc1)C[C@H](CC(C)C)NC(=O)[C@@H](NC(=O)OC(C)(C)C)C(C)C)C(C)C | > 100 µM
CCCCC1Cc2cc(O)ccc2-c2nc3cc(O)ccc3n21 (stereo not drawn) (tested in a mixture with another compound) | 77.7 µM
CC(NC(=O)c1c(O)[nH]c(=S)[nH]c1=O)c1ccc([N+](=O)[O-])cc1 (stereo not drawn) | > 100 µM
CC(=O)c1c(N=[N+]=[N-])c2cccc3c2n(c1=O)CCC3 | 18.9 µM
CN1CC=C(c2c(N)nc(N)[nH]c2=O)CC1 | > 100 µM
CN1CCc2c(sc3[nH]c(=S)[nH]c(=S)c23)C1 | > 100 µM
Cc1n[n+](Cc2ccccc2)c2sc(N)nn12 | > 100 µM
CC(=O)Nc1c(C(=N)C#N)ncn1CCO | > 100 µM
O=C(NCCN1CCOCC1)c1ccc(I)cc1 | > 100 µM
Cc1ccc(S(=O)(=O)C2=C(C(C)C)N=NC2(C)C)cc1 | > 100 µM
COc1cc2nc(-c3cccs3)nc(Cl)c2cc1OC | > 100 µM
CCC1CC(O)c2c(O)c3c(c(O)c2C1O)C(=O)c1cccc(O)c1C3=O (stereo not drawn) (tested in a mixture with another compound) | 0.0721 µM and 0.0312 µM
COc1ccc(/C(Cl)=C(\C#N)c2ccc(OC)c(OC)c2)cc1OC | > 100 µM
CCOC(=O)CCC1(CCC(=O)OCC)CCCCCCCCC(CCC(=O)OCC)(CCC(=O)OCC)C(=O)C1=O | > 100 µM
COCn1cnc2c(=O)nc(SC)n(-c3ccccc3)c21 | > 100 µM

Tested on: MOLT-4 leukemia
Test: NCI-60 cell line screen, 48 h

SMILES | TGI
CC(=O)O[C@@]12CO[C@@H]1CC(O)[C@@]1(C)C(=O)[C@H](O)C3=C(C)C(O)C[C@@](O)(C(OC(=O)c4ccccc4)C12)C3(C)C (stereo partly drawn) | > 31.6 µM
COc1ccc(CNc2nc(NC3CCCCC3)nc(NC3CCCCC3)n2)cc1 | > 100 µM
CN(C)CCCNc1ccc2ncn3c4ccc(O)cc4c(=O)c1c23 | 10.1 µM
Cc1ccc(NC(=O)C(=O)C2C(=O)NC(=O)NC2=O)cc1C | > 100 µM
S=C1NCCN1C(=S)Nc1ccccc1 | > 100 µM
C[n+]1c2ccccc2c(NC(CCCN=C(N)N)C(=O)O)c2ccccc21 (stereo not drawn) | > 100 µM
CCOC(=O)c1ccc(-c2ccc(Cl)cc2)[nH]1 | > 10 µM
CC1CC(Nc2ccc(Br)cc2)N(C(=O)c2ccc(Br)cc2)O1 (stereo not drawn) | > 10 µM
OC(C/C=N/N=C/CC(O)(C(F)(F)Cl)C(F)(F)Cl)(C(F)(F)Cl)C(F)(F)Cl | > 10 µM
O=C1C=C(Nc2ccc(S(=O)(=O)Nc3nccs3)cc2)c2ccccc2C1=O | > 100 µM
O=c1[nH]c2nc3ccccc3c(=O)n2/c1=C/c1cccs1 | > 100 µM
COc1ccc(/C=N/N=C(\N)NO)c(OC)c1C | > 100 µM
CCCC(=O)[O-].CCCC(=O)[O-].NCCN.NCCN.[Co+3].[O-][Cl+3]([O-])([O-])[O-] | > 100 µM
O=C1CCSCCC(=O)Nc2ccccc2N1 | > 100 µM
COc1ccc(N2C(=O)C(=O)N(c3ccc(N=Nc4ccccc4)cc3)C2=S)cc1 | > 100 µM
Cc1ccc(CSC(N)=Nc2ccccc2)cc1C | 75.4 µM

SMILES | TGI
C=C1CCCCCCCCC/C=C/1SCCCSC | > 100 µM
COc1ccc2nc3cc(Cl)ccc3c(Sc3ccc(NC(C)=O)cc3)c2c1 | 84.4 µM
COc1cccc(-c2nc(-c3cnccn3)n(C/C=C/c3ccccc3)n2)c1 | > 10 µM
Nc1c(S(=O)(=O)c2ccccc2)c2nc3ccccc3nc2n2c1nc1ccccc12 | > 100 µM
Cc1[nH]n(-c2nc(O)c(-c3ccccc3)c(=O)[nH]2)c(=O)c1CCO | > 100 µM
CC(NC(=O)Cc1ccccc1)NC(=O)C(C)C(=O)NCc1ccccc1 (stereo not drawn) | > 100 µM
COC(=O)[C@@H](NC(=O)N(Cc1ccccc1)C[C@H](CC(C)C)NC(=O)[C@@H](NC(=O)OC(C)(C)C)C(C)C)C(C)C | > 100 µM
CCCCC1Cc2cc(O)ccc2-c2nc3cc(O)ccc3n21 (stereo not drawn) (tested in a mixture with another compound) | 46.9 µM
CC(NC(=O)c1c(O)[nH]c(=S)[nH]c1=O)c1ccc([N+](=O)[O-])cc1 (stereo not drawn) | 95 µM
CC(=O)c1c(N=[N+]=[N-])c2cccc3c2n(c1=O)CCC3 | 62.6 µM
NC1(CCNC(=O)c2ccccc2)CCN(C(=O)c2ccccc2)CC1 | > 100 µM
COC(=O)N[C@H](C(=O)NC(OCc1ccccc1)C1COC(C)(C)O1)C(C)O[Si](C)(C)C(C)(C)C (stereo partly drawn) | > 100 µM
CC(=O)O[C@]12CCCCCC1C1(O)C(O)CCCCC12 (stereo partly drawn) | > 100 µM
O=Cc1ccc(-c2ccc(-c3ccc(CO)s3)o2)s1 | > 39 µM
CN1CC=C(c2c(N)nc(N)[nH]c2=O)CC1 | > 100 µM
